Experimental findings from patent US9682995B2, “Amino-substituted isothiazoles” (BAYER PHARMA AKTIENGESELLSCHAFT, priority 2013, dated 2017) are described below.

pIC50: −log10 of the molar value.

Assay [1] has as its system spindle assembly checkpoint. Nature of the assay: SAC-Formation - Paclitaxel-Induced Assay. It counts as cell-based. As to conditions: Homo sapiens; HeLa cells, paclitaxel 0.05 μM, 24 h, phosphorylated histone H3 on serine 10. The text has this:
The spindle assembly checkpoint assures the proper segregation of chromosomes during mitosis. Upon entry into mitosis, chromosomes begin to condensate which is accompanied by the phosphorylation of histone H3 on serine 10. Dephosphorylation of histone H3 on serine 10 begins in anaphase and ends at early telophase. Accordingly, phosphorylation of histone H3 on serine 10 can be utilized as a marker of cells in mitosis. Nocodazole is a microtubule destabilizing substance. Paclitaxel is a microtubule stabilizing compound. Thus, nocodazole as well as paclitaxel interfere with microtubule dynamics and mobilize the spindle assembly checkpoint. […] The mitotic breakthrough can be detected by the decrease of cells with phosphorylation of histone H3 on serine 10. This decline is used as a marker to determine the capability of compounds of the present invention to induce a mitotic breakthrough. The typical morphological alteration of nuclei with a prematurely completed mitosis after SAC-inhibition can be monitored via image analysis routines supporting those findings.
The nocodazole and paclitaxel variations were used to focus on compounds that are capable of inhibiting a SAC induced by both microtubule destabilization as well as microtubule stabilization. When SAC inducing agents and compounds are given simultaneously, inhibitors that effectively block the SAC during formation or abrogation are identified. When cells are incubated with a SAC inducing agent and the SAC interfering compound is given after a defined time, inhibitors are identified that effectively block SAC abrogation.
Cultivated cells of the human cervical tumor cell line HeLa (ATCC CCL-2) were plated at a density of 1000 cells/well in a 1536-well microtiter plate in 2 μl PAA Ham's F12 Medium supplemented with 1% (v/v) glutamine, 1% (v/v) penicillin, 1% (v/v) streptomycin and 10% (v/v) fetal calf serum. After incubation overnight at 37° C., 10 μl/well paclitaxel at a final concentration of 0.05 μM were added to cells. Test compounds solubilized in dimethyl sulfoxide (DMSO) were added at various concentrations (0 μM, as well as in the range of 0.005 μM-20 μM; the final concentration of the solvent DMSO was 0.5% (v/v)). Cells were incubated for 24 h at 37° C. in the presence of test compounds in combination with paclitaxel. Thereafter, cells were fixed in 4% (v/v) paraformaldehyde in phosphate buffered saline (PBS) at 4° C. overnight then permeabilized in 0.1% (v/v) Triton X™ 100 in PBS at room temperature for 20 min and blocked in 0.5% (v/v) bovine serum albumin (BSA) in PBS at room temperature for 15 min. After washing with PBS, 5 μl/well antibody solution (anti-phospho-histone H3 clone 3H10, FITC; Millipore, Cat #16-222; 1:1000 dilution) was added to cells, which were incubated for 2 h at room temperature. Afterwards, cells were washed with PBS and 5 μl/well solution of HOECHST 33342 dye (5 μg/ml) was added to cells and cells were incubated 15 min at room temperature in the dark. Cells were washed twice with PBS then covered with PBS and stored at 4° C. until analysis. Images were acquired with a PERKIN ELMER OPERA™ High-Content Analysis reader. Images were analyzed with image analysis software MetaXpress™ from Molecular devices utilizing the Mitotic Index application module. In this assay both labels HOECHST 33342 and phosphorylated Histone H3 on serine 10 were measured. HOECHST 33342 labels the DNA and is used to count the cell number. The staining of phosphorylated Histone H3 on serine 10 determines the number of mitotic cells. […] Otherwise cells were arrested at G2/M phase of the cell cycle progression. The raw assay data were further analyzed by four-parametric hill equation using Genedata's Assay Analyzer and Condoseo software.

The next assay deals with human Bub1 (Homo sapiens (Human), UniProt O43683). Nature of the assay: Bub1 kinase assay (TR-FRET). It counts as biochemical. The conditions noted are these: 10 μM ATP; read-out: Bub1 avg (IC50 [mol/l]). The text has this:
Bub1-inhibitory activity of compounds of the present invention was quantified employing the Bub1 TR-FRET assay as described in the following paragraphs.
N-terminally His6-tagged recombinant catalytic domain of human Bub1 (amino acids 704-1085), expressed in insect cells (Hi5) and purified by Ni-NTA affinity chromatography and subsequent size exclusion chromatography, was used as enzyme. As substrate for the kinase reaction the biotinylated peptide biotin-Ahx-VLLPKKSFAEPG (C-terminus in amid form) was used which can be purchased e.g. form the company Biosyntan (Berlin, Germany).
For the assay 50 nl of a 100 fold concentrated solution of the test compound in DMSO was pipetted into a black low volume 384 well microtiter plate (Greiner Bio-One, Frickenhausen, Germany), 2 μl of a solution of Bub1 in aqueous assay buffer [50 mM Tris/HCl pH 7.5, 10 mM magnesium chloride (MgCl2), 200 mM potassium chloride (KCl), 1.0 mM dithiothreitol (DTT), 0.1 mM sodium ortho-vanadate, 1% (v/v) glycerol, 0.01% (w/v) bovine serum albumine (BSA), 0.005% (v/v) Trition X-100 (Sigma), 1× Complete EDTA-free protease inhibitor mixture (Roche)] were added and the mixture was incubated for 15 min at 22° C. to allow pre-binding of the test compounds to the enzyme before the start of the kinase reaction. Then the kinase reaction was started by the addition of 3 μl of a solution of adenosine-tri-phosphate (ATP, 16.7 μM=>final conc. in the 5 μl assay volume is 10 μM) and substrate (1.67 μM=>final conc. in the 5 μl assay volume is 1 μM) in assay buffer and the resulting mixture was incubated for a reaction time of 60 min at 22° C. The concentration of Bub1 was adjusted depending of the activity of the enzyme lot and was chosen appropriate to have the assay in the linear range, typical concentrations were in the range of 200 ng/ml. The reaction was stopped by the addition of 5 μl of a solution of TR-FRET detection reagents (0.2 μM streptavidine-XL665 [Cisbio Bioassays, Codolet, France] and 1 nM anti-phosho-Serine antibody [Merck Millipore, cat. #35-001] and 0.4 nM LANCE EU-W1024 labeled anti-mouse IgG antibody [Perkin-Elmer, product no. AD0077, as an alternative a Terbium-cryptate-labeled anti-mouse IgG antibody from Cisbio Bioassays can be used]) in an aqueous EDTA-solution (50 mM EDTA, 0.2% (w/v) bovine serum albumin in 100 mM HEPES pH 7.5).
The resulting mixture was incubated 1 h at 22° C. to allow the formation of complex between the phosphorylated biotinylated peptide and the detection reagents. Subsequently the amount of phosphorylated substrate was evaluated by measurement of the resonance energy transfer from the Eu-chelate to the streptavidine-XL. Therefore, the fluorescence emissions at 620 nm and 665 nm after excitation at 350 nm was measured in a TR-FRET reader, e.g. a Rubystar or Pherastar (both from BMG Labtechnologies, Offenburg, Germany) or a Viewlux (Perkin-Elmer). The ratio of the emissions at 665 nm and at […] was taken as the measure for the amount of phosphorylated substrate. The data were normalised (enzyme reaction without inhibitor=0% inhibition, all other assay components but no enzyme=100% inhibition).
(In general: TR-FRET usually uses a lanthanide donor and a delayed reading to cut background.)

Sequence of human Bub1 (O43683 704-1085): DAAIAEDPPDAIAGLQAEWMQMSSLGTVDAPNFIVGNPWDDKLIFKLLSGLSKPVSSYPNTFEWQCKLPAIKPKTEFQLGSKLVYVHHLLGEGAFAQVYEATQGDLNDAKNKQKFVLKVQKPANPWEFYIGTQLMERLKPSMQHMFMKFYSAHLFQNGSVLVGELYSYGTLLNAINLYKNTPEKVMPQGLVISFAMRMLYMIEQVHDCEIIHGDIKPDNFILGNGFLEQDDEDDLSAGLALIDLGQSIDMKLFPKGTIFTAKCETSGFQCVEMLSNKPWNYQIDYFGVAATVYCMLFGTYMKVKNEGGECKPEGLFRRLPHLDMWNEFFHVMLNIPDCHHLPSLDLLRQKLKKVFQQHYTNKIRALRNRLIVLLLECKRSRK

Take `COc1ccc(Oc2ccc(NC(=O)c3c(C)nsc3Nc3cc(C#N)ccn3)cn2)cc1` [Example 117, 5-[(4-Cyanopyridin-2-yl)amino]-N-[6-(4-methoxyphenoxy)pyridin-3-yl]-3-methyl-1,2-thiazole-4-carboxamide]: the pIC50 is 5.70 in assay [1] and below 4.70 at human Bub1.

For the compound `COC(=O)c1cnc(Nc2snc(C)c2C(=O)Nc2ccc(OC)nc2)cn1` [Example 32, Methyl 5-({4-[(6-methoxypyridin-3-yl)carbamoyl]-3-methyl-1,2-thiazol-5-yl}amino)-pyrazine-2-carboxylate], the pIC50 was 5.92 in assay [1] and below 4.70 on human Bub1.

Regarding `Cc1nsc(Nc2cnc(C(=O)N(C)C)cn2)c1C(=O)Nc1ccc(F)c(F)c1` [Example 109, 5-({4-[(3,4-Difluorophenyl)carbamoyl]-3-methyl-1,2-thiazol-5-yl}amino)-N,N-dimethylpyrazine-2-carboxamide], the pIC50 in assay [1] is 5.72; at human Bub1, below 4.70.

In the case of `CCOC(=O)c1coc(Nc2snc(C)c2C(=O)Nc2ccc(F)c(F)c2)n1` [Example 98, Ethyl 2-({4-[(3,4-difluoro-phenyl)carbamoyl]-3-methyl-1,2-thiazol-5-yl}amino)-1,3-oxazole-4-carboxylate], the results for the pIC50 (in assay [1]; at human Bub1) were 5.10 and below 4.70, respectively.

`CCc1ccccc1NC(=O)c1c(C)nsc1Nc1cnc2cccc(C)c2n1` [Example 33, N-(2-Ethylphenyl)-3-methyl-5-[(8-methylquinoxalin-2-yl)amino]-1,2-thiazole-4-carboxamide]: the pIC50 in assay [1] was 6.14; at human Bub1 it was below 4.70. As to `COc1ccc(NC(=O)c2c(C)nsc2Nc2cnc3ccc(F)cc3n2)cn1` [Example 44, 5-[(7-Fluoroquinoxalin-2-yl)amino]-N-(6-methoxypyridin-3-yl)-3-methyl-1,2-thiazole-4-carboxamide], the pIC50 was 6.31 in assay [1] and below 4.70 at human Bub1.

As to `COc1ccc(NC(=O)c2c(C)nsc2Nc2cccc(C#N)n2)cn1` [Example 37, 5-[(6-Cyanopyridin-2-yl)amino]-N-(6-methoxypyridin-3-yl)-3-methyl-1,2-thiazole-4-carboxamide], the figures for the pIC50 (in assay [1]; on human Bub1) were 6.24 and below 4.70, respectively. For `CCc1ccccc1NC(=O)c1c(C)nsc1Nc1nc(C)nc2sccc12` [Example 38, N-(2-Ethylphenyl)-3-methyl-5-[(2-methylthieno[2,3-d]pyrimidin-4-yl)amino]-1,2-thiazole-4-carboxamide], in that order: 6.24 and below 4.70.

With `COc1ccc(NC(=O)c2c(C)nsc2Nc2cnc3ccc(Cl)cc3n2)cn1` [Example 42, 5-[(7-Chloroquinoxalin-2-yl)amino]-N-(6-methoxypyridin-3-yl)-3-methyl-1,2-thiazole-4-carboxamide], the results for the pIC50 (in assay [1]; on human Bub1) were 6.05 and below 4.70, respectively. For `Cc1nsc(Nc2nc3c(C(F)(F)F)cccc3s2)c1C(=O)Nc1ccc(F)c(F)c1` [Example 51, N-(3,4-Difluorophenyl)-3-methyl-5-{[4-(trifluoromethyl)-1,3-benzothiazol-2-yl]-amino}-1,2-thiazole-4-carboxamide], in that order: 7.46 and below 4.70. For `Cc1nsc(Nc2cc(C#N)ccn2)c1C(=O)Nc1ccc(OC2CCCCC2)nc1` [Example 118, 5-[(4-Cyanopyridin-2-yl)amino]-N-[6-(cyclohexyloxy)pyridin-3-yl]-3-methyl-1,2-thiazole-4-carboxamide], in that order: 7.25 and below 4.70. On to `COc1ccc(NC(=O)c2c(C)nsc2Nc2cnc3c(F)c(F)ccc3n2)cn1` [Example 43, 5-[(5,6-Difluoroquinoxalin-2-yl)amino]-N-(6-methoxypyridin-3-yl)-3-methyl-1,2-thiazole-4-carboxamide], for which the pIC50 in assay [1] was 6.96; at human Bub1, below 4.70. For `COc1ccc(NC(=O)c2c(C)nsc2Nc2nc3c(C(F)(F)F)cccc3s2)cn1` [Example 48, N-(6-Methoxypyridin-3-yl)-3-methyl-5-{[4-(trifluoromethyl)-1,3-benzothiazol-2-yl]-amino}-1,2-thiazole-4-carboxamide], in that order: 6.85 and below 4.70.

`CCNC(=O)c1csc(Nc2snc(C)c2C(=O)Nc2ccc(F)c(F)c2)n1` [Example 99, N-(3,4-Difluorophenyl)-5-{[4-(ethylcarbamoyl)-1,3-thiazol-2-yl]amino}-3-methyl-1,2-thiazole-4-carboxamide]: the pIC50 is 6.52 in assay [1] and below 4.70 on human Bub1. In the case of `Cc1nsc(Nc2cncc(C(=O)N(C)C)n2)c1C(=O)Nc1ccc(F)c(F)c1` [Example 104, 6-({4-[(3,4-Difluorophenyl)-carbamoyl]-3-methyl-1,2-thiazol-5-yl}amino)-N,N-dimethyl-pyrazine-2-carboxamide], the pIC50 in assay [1] was 5.12; at human Bub1 it was below 4.70. Take `Cc1nsc(Nc2cc(C#N)ccn2)c1C(=O)Nc1ccc(Oc2ccc(F)cc2F)nc1` [Example 114, 5-[(4-Cyanopyridin-2-yl)amino]-N-[6-(2,4-difluorophenoxy)pyridin-3-yl]-3-methyl-1,2-thiazole-4-carboxamide]: in assay [1], the pIC50 was 6.92. On the same count and under the same terms, the figure for `COc1ccc(NC(=O)c2c(C)nsc2Nc2ncccc2C#N)cn1` [Example 36, 5-[(3-Cyanopyridin-2-yl)amino]-N-(6-methoxypyridin-3-yl)-3-methyl-1,2-thiazole-4-carboxamide] is 5.43.
